# From paper PMC11601558, “SLC6A19 inhibition facilitates urinary neutral amino acid excretion and lowers plasma phenylalanine” (JCI Insight, 2024)
# “And” between values parts separate entries of the source, which are not always exact repeats. Equal entries are not always repeated.
# Key:
# [1] = system: healthy volunteers; assay: Plasma amino acid levels in healthy volunteers (MAD); type: in vivo, human
# Method: The effect of JNT-517 on plasma and urine AA levels was measured using an ultra-performance liquid chromatography mass spectrometry assay following 6-aminoquinolyl-N-hydroxysuccinimidyl carbamate (AQC) derivatization. For the SAD study, plasma samples were collected on day –1 and day 1 predose, as well as 24, 48, and 72 hours after dosing. A first morning void urine sample on Days –1 and 1 predose, as well as 2 pooled urine samples 0–8 hours after and 8–24 hours after dose were also collected following study drug administration. For the MAD study, plasma samples were collected on day –1, 1, 7, and 14 predose, as well as day 14, 24 hours after dosing. A first morning void urine samples on day –1, 1, 7, and 14 as well as 2 pooled urine samples 0–8 hours and 8–24 hours after dose on days 1, 7, and 14 were also collected following JNT-517 or placebo administration. Study participants in SAD and MAD cohorts were dosed in the morning following an overnight fast of at least 8 hours and were provided the following meals in relation to dosing times: breakfast after the morning dose, lunch 4 hours after morning dose, optional snack in the afternoon 8 hours after the morning dose and after the second dose for MAD cohorts dosed BID, dinner approximately 10 hours after the morning dose and at least 2 hours after the second dose for MAD cohorts dosed BID. Predose plasma amino acids were drawn after a minimum of 8 hours fasting overnight and after-dose levels were drawn after > 1.5 hours fasting. Resulting plasma and urine amino acid concentration measurements, as well a total amino acid excretion over a time period were summarized using appropriate descriptive statistics and compared with either predose levels or placebo-dose values. Tryptophan was not included in the amino acid panel due to analytical limitations.
# [2] = system: T1, SLC7A5 co-expressed with SLC3A2; assay: SLC7A5 isoleucine transport assay; type: cell-based, human; settings: for SLC7A5 transport (Fig S2 curve point): technical replicates
# T1 construct: V5; expressed in transfected cells; host or cells: Flp-In T-Rex 293 cells (Thermo Fisher), SLC7A5 tetracycline-induced
# Method: Supplementary Materials and Methods
# Flp-In T-Rex 293 cells (Thermo Fisher) were engineered to induciblyexpress either V5-tagged human SLC1A5, SLC6A8 or SLC7A5 co-expressed with myc-DDK-tagged SLC3A2. Cells expressing SLC 1A5 or SLC6A8 were maintained in either DMEM or DMEM/F12 media supplemented with 10% FBS, 100 U/mL penicillin, 100 μg/mL streptomycin, 200 μg/mL hygromycin, and 10 μg/mL blasticidin. For cells expressing SLC7A5/SLC3A2, the media was additionally supplemented with 300 μg/mL geneticin. All cell lines were maintained at 37°C and 5% CO2. For transport experiments, all cell lines were plated in poly-D-lysine-coated 96-well plates at a density of 35,000 cells/well. One day after plating, expression of SLC1A5, SLC6A8 or SLC7A5 was induced by adding tetracycline at a concentration of 1 μg/mL. Cells were induced for 24 h prior to transport assays. […]
# SLC7A5 isoleucine transport assay
# Following a 24 h induction with tetracycline, cells were washed with sodium -free LCIS (20 mM HEPES, 140 mM choline chloride, 2.5 mM KCl, 1.8 mM CaCl2, 1 mM MgCl2, pH 7.4) before JNT-517 was added in 8-point concentration-response diluted in sodium-free LCIS. JPH203 (Selleckchem) was used as a positive control (34)at a concentration of 1.3 μM and DMSO was used as a negative control. Cells were incubated for 30 min at room temperature before a mixture of unlabeled L-isoleucine (Millipore Sigma) and 10 μCi/mL 4,5 -3H(N)-labeled L-isoleucine (American Radiolabeled Chemicals) was added at a concentration of 50 μM. After a 2 min incubation at room temperature, cells were washed once with sodium -free LCIS and lysed in scintillation fluid (PerkinElmer). The uptake of radioactive substrate was measured on a Microbeta2 microplate counter (PerkinElmer). […]
smiles,measurement,setting,value
NC(=O)N1CCC[C@@H](N(C(=O)NCc2ccc(OC(F)(F)F)cc2F)C2CC2)C1 [JNT-517],number of subjects with plasma Alanine below lower limit of normal,"[1]; MAD 25 mg BID, Post-dose",0
same,number of subjects with plasma Arginine below lower limit of normal,"[1]; MAD 25 mg BID, Post-dose",0
same,number of subjects with plasma Asparagine below lower limit of normal,"[1]; MAD 25 mg BID, Post-dose",0
same,number of subjects with plasma Cystine below lower limit of normal,"[1]; MAD 25 mg BID, Post-dose",5
same,number of subjects with plasma Glutamate below lower limit of normal,"[1]; MAD 25 mg BID, Post-dose",0
same,number of subjects with plasma Glutamine below lower limit of normal,"[1]; MAD 25 mg BID, Post-dose",0
same,number of subjects with plasma Glycine below lower limit of normal,"[1]; MAD 25 mg BID, Post-dose",0
same,number of subjects with plasma Isoleucine below lower limit of normal,"[1]; MAD 25 mg BID, Post-dose",0
same,number of subjects with plasma Leucine below lower limit of normal,"[1]; MAD 25 mg BID, Post-dose",0
same,number of subjects with plasma Lysine below lower limit of normal,"[1]; MAD 25 mg BID, Post-dose",0
same,number of subjects with plasma Methionine below lower limit of normal,"[1]; MAD 25 mg BID, Post-dose",0
same,number of subjects with plasma Phenylalanine below lower limit of normal,"[1]; MAD 25 mg BID, Post-dose",0
same,number of subjects with plasma Proline below lower limit of normal,"[1]; MAD 25 mg BID, Post-dose",0
same,number of subjects with plasma Serine below lower limit of normal,"[1]; MAD 25 mg BID, Post-dose",0
same,number of subjects with plasma Threonine below lower limit of normal,"[1]; MAD 25 mg BID, Post-dose",0
same,number of subjects with plasma Tyrosine below lower limit of normal,"[1]; MAD 25 mg BID, Post-dose",0
same,number of subjects with plasma Valine below lower limit of normal,"[1]; MAD 25 mg BID, Post-dose",0
same,number of subjects with plasma Alanine below lower limit of normal,"[1]; MAD 75 mg BID, Post-dose",0
same,number of subjects with plasma Arginine below lower limit of normal,"[1]; MAD 75 mg BID, Post-dose",0
same,number of subjects with plasma Asparagine below lower limit of normal,"[1]; MAD 75 mg BID, Post-dose",0
same,number of subjects with plasma Cystine below lower limit of normal,"[1]; MAD 75 mg BID, Post-dose",0
same,number of subjects with plasma Glutamate below lower limit of normal,"[1]; MAD 75 mg BID, Post-dose",0
same,number of subjects with plasma Glutamine below lower limit of normal,"[1]; MAD 75 mg BID, Post-dose",0
same,number of subjects with plasma Glycine below lower limit of normal,"[1]; MAD 75 mg BID, Post-dose",0
same,number of subjects with plasma Isoleucine below lower limit of normal,"[1]; MAD 75 mg BID, Post-dose",0
same,number of subjects with plasma Leucine below lower limit of normal,"[1]; MAD 75 mg BID, Post-dose",0
same,number of subjects with plasma Lysine below lower limit of normal,"[1]; MAD 75 mg BID, Post-dose",0
same,number of subjects with plasma Methionine below lower limit of normal,"[1]; MAD 75 mg BID, Post-dose",0
same,number of subjects with plasma Phenylalanine below lower limit of normal,"[1]; MAD 75 mg BID, Post-dose",0
same,number of subjects with plasma Proline below lower limit of normal,"[1]; MAD 75 mg BID, Post-dose",0
same,number of subjects with plasma Serine below lower limit of normal,"[1]; MAD 75 mg BID, Post-dose",0
same,number of subjects with plasma Threonine below lower limit of normal,"[1]; MAD 75 mg BID, Post-dose",0
same,number of subjects with plasma Tyrosine below lower limit of normal,"[1]; MAD 75 mg BID, Post-dose",0
same,number of subjects with plasma Valine below lower limit of normal,"[1]; MAD 75 mg BID, Post-dose",0
same,number of subjects with plasma Alanine below lower limit of normal,"[1]; MAD 150 mg QD, Post-dose",0
same,number of subjects with plasma Arginine below lower limit of normal,"[1]; MAD 150 mg QD, Post-dose",0
same,number of subjects with plasma Asparagine below lower limit of normal,"[1]; MAD 150 mg QD, Post-dose",0
same,number of subjects with plasma Cystine below lower limit of normal,"[1]; MAD 150 mg QD, Post-dose",5
same,number of subjects with plasma Glutamate below lower limit of normal,"[1]; MAD 150 mg QD, Post-dose",0
same,number of subjects with plasma Glutamine below lower limit of normal,"[1]; MAD 150 mg QD, Post-dose",0
same,number of subjects with plasma Glycine below lower limit of normal,"[1]; MAD 150 mg QD, Post-dose",0
same,number of subjects with plasma Isoleucine below lower limit of normal,"[1]; MAD 150 mg QD, Post-dose",0
same,number of subjects with plasma Leucine below lower limit of normal,"[1]; MAD 150 mg QD, Post-dose",0
same,number of subjects with plasma Lysine below lower limit of normal,"[1]; MAD 150 mg QD, Post-dose",0
same,number of subjects with plasma Methionine below lower limit of normal,"[1]; MAD 150 mg QD, Post-dose",0
same,number of subjects with plasma Phenylalanine below lower limit of normal,"[1]; MAD 150 mg QD, Post-dose",0
same,number of subjects with plasma Proline below lower limit of normal,"[1]; MAD 150 mg QD, Post-dose",0
same,number of subjects with plasma Threonine below lower limit of normal,"[1]; MAD 150 mg QD, Post-dose",0
same,number of subjects with plasma Valine below lower limit of normal,"[1]; MAD 150 mg QD, Post-dose",0
same,number of subjects with plasma Serine below lower limit of normal,"[1]; MAD 150 mg QD, Post-dose (16.7%)",1
same,number of subjects with plasma Tyrosine below lower limit of normal,"[1]; MAD 150 mg QD, Post-dose (33.3%)",2
same,SLC7A5 transport (Fig S2 curve point),[2]; 0.0160037 uM,105 and 96.7
same,SLC7A5 transport (Fig S2 curve point),[2]; 0.048011 uM,106 and 104
same,SLC7A5 transport (Fig S2 curve point),[2]; 0.144033 uM,99.2 and 100
same,SLC7A5 transport (Fig S2 curve point),[2]; 0.432099 uM,95.2 and 94.5
same,SLC7A5 transport (Fig S2 curve point),[2]; 1.2963 uM,99.2 and 103
same,SLC7A5 transport (Fig S2 curve point),[2]; 3.88889 uM,101 and 96.2
same,SLC7A5 transport (Fig S2 curve point),[2]; 11.6667 uM,108 and 105
same,SLC7A5 transport (Fig S2 curve point),[2]; 35 uM,133 and 120
same,inhibition of SLC7A5,[2]; concentrations up to 35 μM,did not inhibit
